In publication PMC12311729, “Probing the Mechanism of L‑DOPA 2,3-Dioxygenase Using Synthetic Derivatives of 3,4-Dihydroxyhydrocinnamic Acid” (ACS Omega, 2025):

Columns and labels:
[1] = target: L-DOPA 2,3-dioxygenase from S. hygroscopicus jingganensis (ShjDDO) (Streptomyces hygroscopicus, UniProt H2JL11); assay: UV-visible steady-state assay of L-DOPA 2,3-dioxygenase (ShjDDO); assay type: biochemical; conditions: for kSP, O2 (μM^-1 min^-1) at pH 7.5 relative to L-DOPA x 100 for ShjDDO: percentage of the value for L-DOPA
Sequence of L-DOPA 2,3-dioxygenase from S. hygroscopicus jingganensis (ShjDDO) (H2JL11 1-162): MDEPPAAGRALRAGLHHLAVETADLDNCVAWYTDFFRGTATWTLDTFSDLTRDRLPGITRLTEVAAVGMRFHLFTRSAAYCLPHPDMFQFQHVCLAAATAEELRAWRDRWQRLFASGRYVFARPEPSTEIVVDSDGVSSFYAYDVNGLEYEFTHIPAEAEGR
Protocol: (§1) Purified, reconstituted L-DOPA 2,3-dioxygenases were assessed for activity by monitoring the cleavage of catecholic substrates using UV–visible spectroscopy. 3,4-Dihydroxyhydrocinnamic acid (DHHCA, 3) was purchased from Sigma-Aldrich. 6-CyanoDHHCA (5) and 6-bromoDHHCA (4) were synthesized as described above.
(§2) Molecular oxygen (AirGas) was bubbled directly into the reaction buffer through a glass-bonded silica gas diffuser (Bubblemac Industries, Inc.) or as a gas mixture blended with air (AirGas). Solutions were bubbled with oxygen for several minutes prior to use and for the duration of the experiment. To determine the K M for oxygen (i.e., K MO2), L-DOPA 2,3-dioxygenases (0.25–4.0 μM) were reacted with a saturating concentration of the catecholic substrate DHHCA/6-X-DHHCA derivatives (2–10× the K M sufficient to achieve k cat) and various oxygen concentrations (21–100% or 270–1300 μM at 22 °C). The concentration of oxygen was varied by changing the percentage of oxygen in the blend using a galvanic oxygen sensor and oxygen monitor (AirGas) and then bubbling solutions, as described above. Molecular oxygen percentages were converted to molar concentrations using a reference temperature of 22 °C. The reaction of L-DOPA 2,3-dioxygenases with DHHCA/6-X-DHHCA derivatives as a function of oxygen concentration was followed by the appearance of the steady-state cleavage product by using UV–visible spectroscopy.
(§3) The extinction coefficients for steady-state cleavage products of DHHCA and synthetic 6-X-DHHCA derivatives were determined by reacting various concentrations of DHHCA/6-X-DHHCA derivatives at 22 °C with a 10-fold stoichiometric excess of enzyme (quantified by Fe^II–see Reconstitution) in 50 mM HEPES buffer with 154 mM NaCl at pH 7.5, bubbled with 100% oxygen to a final concentration of 780–910 μM, depending on the volume of oxygenated buffer that comprised the reaction (60–70%). Substrate solutions were prepared from authentic synthetic standards using an analytical balance, and reactions were run to completion as assessed by the appearance of the steady-state product. The λmax and extinction coefficients of DHHCA, 6-cyanoDHHCA, and 6-bromoDHHCA were determined herein as ε380 = 40 740 ± 820 M^–1cm^–1, ε385 = 33 256 ± 484 M^–1cm^–1, and ε380 = 35 282 ± 1190 M^–1cm^–1, respectively (Figure S52).
(§4) Steady-state kinetic data were obtained through a UV–visible spectroscopic assay. Initial rates were obtained from the slopes of the linear regions of the progress curves and plotted versus substrate concentration to yield a hyperbola, which was analyzed using the Michaelis–Menten expression and nonlinear least-squares fitting (NLSF) with Origin 6.0 (Microcal). Two possible derivations of the Michaelis–Menten expression were used: 1) the traditional expression y = k cat × x/(K M + x), where y is Rate/E 0 or the rate of product formation (μM/min) divided by the starting enzyme concentration (μM), x is substrate concentration (μM) and k SP (also known as k cat × K M ^–1)–that is, the second-order rate constant of enzyme and substrate–is extracted from the fitted constants; or 2) the alternative derivation that extracts k SP and k cat directly from the fit: y = (k SP × x)/((1 + k SP × x)/k cat), and where y is Rate/E 0 or the rate of product formation (μM/min) divided by the starting enzyme concentration (μM), x is substrate concentration (μM), k SP is equivalent to k cat×K M ^–1, and K M is extracted from k cat/k cat×K M ^–1.

[2] = target: L-DOPA 2,3-dioxygenase from S. lincolnensis (LmbB1) (Streptomyces lincolnensis, UniProt Q54354); assay: UV-visible steady-state assay of L-DOPA 2,3-dioxygenase (LmbB1); assay type: biochemical; conditions: for kSP, O2 (μM^-1 min^-1) at pH 7.5 relative to L-DOPA x 100 for LmbB1: percentage of the value for L-DOPA
Sequence of L-DOPA 2,3-dioxygenase from S. lincolnensis (LmbB1) (Q54354 entry or part of it): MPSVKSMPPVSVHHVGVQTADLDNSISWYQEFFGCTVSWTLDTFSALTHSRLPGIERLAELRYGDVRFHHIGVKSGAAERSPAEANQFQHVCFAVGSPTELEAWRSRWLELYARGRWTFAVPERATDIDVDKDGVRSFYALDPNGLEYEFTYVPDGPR
Protocol: as §1, §2, §3, §4

[3] = Determination of pKa values by spectrophotometric titration; conditions: for pK a value: first catecholic deprotonation, determined spectroscopically from pH 3 to 12.5
Protocol: A buffer system utilizing five different buffers was prepared to cover the pH range of 3.0 to 12.50. A Thermo Scientific Orion Star A211 pH meter was used to measure and determine the pH of each buffer. The pH meter was calibrated using three- and four-point calibration with pH values of 4.00, 7.01, and 10.01 and 4.00, 7.01, 10.01, and 12.00, respectively.
The buffer systems were prepared as previously described and included: NaOAc/HOAc buffers (C = 0.1 M; I = 0.1 M) were used to cover the pH range of 3.0 to 5.50. KH2PO4/K2HPO4 buffers (C = 0.05 M; I = 0.1 M) were used to cover the pH range of 6.00 to 8.00. CHES buffers (C = 0.05 M; I = 0.1 M) were used to cover the pH range of 8.50 to 10.50. Na2HPO4/Na3PO4 buffers (C = 0.05 M; I = 0.1 M) were used to cover the pH range of 11.00 to 12.00. KCl buffers (C = 0.1 M; I = 0.1 M) were used to cover the pH range of 12.00 to 12.50.
The absorbance spectra of the compounds were determined at each pH as previously described. Briefly, a stock solution was prepared for each compound by weighing 2 mg of the compound using a high-precision analytical balance. Each compound was then dissolved in DMSO at a concentration of 10 mM. A UV-transparent 96-well microplate (Corning clear acrylic 96-well UV plate with a UV-transparent flat bottom) was loaded with 196 μL of buffer solution and 4 μL of the catechol stock in each well to get a final concentration of 200 μM. DMSO (4 μL) was added to 196 μL of the appropriate buffer to produce a blank solution for each buffer.
The 96-well plate was loaded into the microplate reader and incubated at 30 °C and shaken for 10 min before the reading. Absorbance readings were completed by using a Synergy HTX 15032517 microplate reader. Each well was read at wavelengths from 210 to 600 nm with 2-nm increments for each scan over a duration of 60 min.
The data were analyzed as previously described. Raw UV-spectra scans were exported to the Excel program. They were first processed by subtracting the reading of the blank solutions from the reading of each compound at the corresponding wavelengths. […] Finally, the spectral difference between the pH 3.0 buffer and the spectra at all other pH values was plotted. Additionally, the spectral difference between the pH 4.0 buffer and the spectra at all other higher pH values was plotted. The wavelengths for the maximum positive and negative absorbance were determined by using the graphs of the spectral difference plots, both for the pH 3.0 and pH 4.0 spectral difference plots. The absolute maximum positive and total absorbance differences at these chosen wavelengths were plotted against the pH of each buffer. The data were imported into the Origin 6.0 program, and the pK a values were determined with a nonlinear regression using eq : 1 Absorbancetotal=εHA−εA−[10^(pH−pKa)]/1+10^(pH−pKa)×[St]
εHA is the extinction coefficients of the acid form of the compound, and εA ^– is the extinction coefficient of the base form of the compound (i.e., the minima and maxima of the absorbance difference curve, respectively), and [S t] is the total compound concentration.

[4] = Cyclic voltammetry (redox potentials on a GCE); assay type: physicochemical; conditions: for (E p)a Oxidation / (E p)c Reduction / E1/2 / Ipa/Ipc / ΔE p: GCE (d = 2 mm)
Text: Reduction and oxidation potentials were experimentally performed by cyclic voltammetry (CV) at biological pH 7.4, as previously described. All samples were run on a CH Instruments 600E Potentiostat in a one-compartment cell equipped with a three-electrode system arrangement. The three-electrode system included a saturated calomel electrode as the reference electrode, a platinum wire as the auxiliary electrode, and a glassy carbon electrode (GCE, d = 2 mm) as the working electrode. The GCE was polished between each sample scan with an aqueous slurry of alumina powder on a microcloth pad. The electrodes were rinsed with distilled water prior to the next scan. All scans were conducted under nitrogen for oxygen displacement and at room temperature (rt, 25 ± 1 °C). All samples were prepared as close to the scan as possible (approximately 2 min each). Each sample (5 mL) contained 0.1 mM catecholic substrate and 1 μM DMSO in 0.1 M phosphate buffer at a pH of 7.4 or 6.0. […] The cyclic voltammograms for the compounds at both pH 6.0 and 7.4 are available in Figures S40–S51.

[5] = percentage of the value for L-DOPA

- kcat at 22 °C and 100% O2 saturation ([1]; S. hygroscopicus jingganensis enzyme, pH 7.5): 1.1 × 10^–3 ± 1.0 × 10 ^–4 sec^–1
- kSP,O2 × 10^2 at 22 °C ([1]; S. hygroscopicus jingganensis enzyme, values are kSP × 10^2): 4.0 × 10^–2 ± 6.0 × 10 ^–3 μM^–1 min^–1
- kSP catechol × 10^2 at 22 °C ([1]; S. hygroscopicus jingganensis enzyme, values are kSP × 10^2, kSP = kcat/KM): 2.8 × 10^–2 ± 7.1 × 10 ^–3 μM^–1 min^–1
- activity / turnover as substrate ([1]; ShjDDO, aerobic reaction observed by UV–visible spectroscopy): measurable activity
- kSP, O2 (μM^-1 min^-1) at pH 7.5 relative to L-DOPA x 100 for ShjDDO ([1]; listed as 6-cyanoDHHCA): 0.03%
- kSP, O2 (μM^-1 min^-1) at pH 7.5 relative to L-DOPA x 100 for ShjDDO ([1]; listed as 6-cyanoDHHCA (5)): < 0.1%
- activity / turnover as substrate ([2]; LmbB1, aerobic reaction observed by UV–visible spectroscopy): measurable activity
- kcat at 22 °C and 100% O2 saturation ([2]; S. lincolnensis enzyme, pH 7.5): 6.7 × 10^–4 ± 2.8 × 10 ^–5 sec^–1
- kSP,O2 × 10^2 at 22 °C ([2]; S. lincolnensis enzyme, values are kSP × 10^2): 1.4 × 10^–2 ± 3.0 × 10 ^–3 μM^–1 min^–1
- kSP catechol × 10^2 at 22 °C ([2]; S. lincolnensis enzyme, values are kSP × 10^2, kSP = kcat/KM): 3.1 × 10^–2 ± 3.9 × 10 ^–3 μM^–1 min^–1
- kSP, O2 (μM^-1 min^-1) at pH 7.5 relative to L-DOPA x 100 for LmbB1 ([2]; listed as 6-cyanoDHHCA): 0.02%
- kSP, O2 (μM^-1 min^-1) at pH 7.5 relative to L-DOPA x 100 for LmbB1 ([2]; listed as 6-cyanoDHHCA (5)): < 0.1%
- ratio of charge states (k1/k-1) predicted by pKa value and Henderson-Hasselbach equation ([3]; at pH 7.35): 1.44
- pK a value [3]: 7.51 ± 0.06
- pK a value ([3]; listed as 6-cyanoDHHCA): 7.51
- Catecholic pKa value relative to L-DOPA x 100 [3, 5]: 85%
- (E p)a Oxidation ([4]; pH 6.0): 358 mV
- (E p)c Reduction ([4]; pH 6.0): 260 mV
- E1/2 ([4]; pH 6.0): 309 mV
- Ipa/Ipc ([4]; pH 6.0): 3.92
- ΔE p ([4]; pH 6.0): 98 mV
- (E p)a Oxidation ([4]; pH 7.4): 272 mV
- (E p)c Reduction ([4]; pH 7.4): 147 mV
- E1/2 ([4]; pH 7.4): 209.5 mV
- Ipa/Ipc ([4]; pH 7.4): 1.96
- ΔE p ([4]; pH 7.4): 125 mV
- E1/2 (mV) at pH 7.4 relative to L-DOPA x 100 [4, 5]: 104%
Compound: N#Cc1cc(O)c(O)cc1CCC(=O)O [6-CyanoDHHCA (5), 3-(2-cyano-4,5-dihydroxyphenyl) propanoic acid]
